We go through 4 compounds from patent publication US20260306641A1, “HELICASE DEGRADERS” (priority 2023, published 2026).

Read-outs that look alike come from different tables or passages of the source.

Usually Km stands for the substrate concentration at which the rate is half of its maximum.

Data set [1] concerns T1, Nc1ncnc2c1ncn2[C@@H]1O[C@H](COP(=O)(O)OP(=O)(O)OP(=O)(O)O)[C@@H](O)[C@H]1O.
T1 construct: made in house; host or cells: High Five insect cells, baculovirus (11 viruses co-infected)
The experiment in a line: hCMG helicase fork-unwinding (strand displacement) assay. The conditions noted are these: other: role: substrate. It counts as biochemical, human. How it is done:
(§1) The human CMG helicase was purified following the established and validated protocol of Hurwitz and colleagues(19,20), with minor modifications. A detailed description of the approach is shown here, to allow for comparisons to the methods described by the Hurwitz group.
(§2) High Five insect cells (2-3 million cells/ml, 1.5 L), were in cultured in a shaking incubator at 27° C. in suspension with ESF921 serum free medium (Expression Systems, CA; cat. #96-001-01), then co-infected for 60 hrs with 11 baculoviruses expressing human 6His2Flag-Cdc45, the human MCM hexamer (Mcm2, Mcm3, Mcm4, Mem5, Mcm6, Mcm7), and human GINS (GST-Sld5, Psf3, Psf2, and Psf1). Each virus was infected at an MOI of ~10 from individual virus stocks. Infected cells were harvested by centrifugation at 650×g for 5 min at 4° C., washed with cold PBS, frozen on dry ice, and stored at −80° C. until use. The cell pellet (~20 mL) was thawed on ice, resuspended in 45 ml Hypotonic Buffer [20 mM Hepes-NaOH (pH 7.5), 5 mM KCl, 1.5 mM MgCl2] with protease inhibitors (1 mM [COMPOUND LEFT OUT], 1 mM Benzamidine, 0.15 μM Aprotinin, 4 μM Leupeptin, and 1 μM Antipain), and kept on ice for 10 min before lysing by Dounce homogenization (tight fitting, 60 strokes). The cell extract was adjusted to 0.42 M potassium acetate and centrifuged at 43,000×g for 1 hr at 4° C. The cleared lysate was mixed with 0.75 ml glutathione beads (cat. #17-0756-05; GE Healthcare) pre-equilibrated with FEQ buffer [20 mM Hepes-NaOH (pH 7.5), 0.42 M potassium acetate, 5 mM KCl, 1.5 mM MgCl2] and incubated by rotation at 4° C. overnight. Following centrifugation at 290×g at 4° C., the bound glutathione beads were washed four times (15 min each wash) with 40 ml of FW buffer [20 mM Hepes-NaOH (pH 7.5), 0.42 M potassium acetate, 1 mM DTT, 1 mM EDTA, 0.01% NP40, 10% glycerol (vol/vol) with protease inhibitors as above] containing protease inhibitors (as above). Bound proteins were eluted at 4° C. three times (1 hr each elution) with 3.5 ml Q buffer [20 mM Hepes-NaOH (pH 7.5), 1 mM DTT, 1 mM EDTA, 0.01% NP40, 10% glycerol (vol/vol), and protease inhibitors as above] containing 0.15 M potassium acetate and 20 mM reduced glutathione. The eluted fractions were combined and applied to a HiTrap Q-Sepharose FF column (HiTrap Q FF 1 mL, cat. #17505301, Cytiva), pre-equilibrated 3× with 5 ml of Q buffer containing 0.15 M, 0.75 M, 0.15M potassium acetate, in sequence. The Q-Sepharose FF column was washed with 10 ml of FW buffer containing protease inhibitors (as above). The proteins were eluted with 10 ml of Q buffer containing 0.75 M potassium acetate. The eluted fraction was mixed with 0.15 ml of anti-Flag M2 affinity gel/beads and incubated while rotating at 4° C. overnight. After centrifugation at 290×g for 5 min at 4° C., the beads were washed three times with 10 ml PreScission buffer [50 mM Tris-HCl (pH 7.5), 0.15 M NaCl, 1 mM DTT, 1 mM EDTA] for 15 min at 4° C., and eluted at 4° C. three times (1 hr each elution) with 0.2 ml PreScission enzyme buffer containing 0.2 mg/ml 3×-Flag peptides. The combined eluates were incubated with 20 Units of PreScission Protease (GE Healthcare) and 0.1 mL glutathione beads for 4 hr at 4° C. The supernatant was layered onto a 15-40% glycerol gradient [25 mM Tris-HCl (pH 7.5), 50 mM NaCl, 1 mM DTT, 1 mM EDTA, 0.01% NP40, protease inhibitors as above] in a 5 mL ultra-centrifugation tube and centrifuged at 260,000×g for 14 hr at 4° C. Glycerol fractions (0.15 mL each fraction) were collected from bottom of tube and stored at −80° C. until use. Typically, fractions 6-9 contained complete hCMG (~750-800 kDa) and co-migrated with thyroglobulin.
(§3) Helicase fork-unwinding assays were performed at 37° C. for 1 hr in 20 μL reaction volumes using 2-4 μl of hCMG (~15-30 fmol), in a buffer consisting of 25 mM Hepes-NaOH (pH 7.5), 5 mM NaCl, 0.5 mM ATP, 10 mM magnesium acetate, 1 mM DTT, 0.1 mg/ml bovine serum albumin (BSA), and ~10 fmol of radiolabeled DNA forks (20). […]

Data set [2] relates to T2, human CMG helicase (hCMG).
T2 construct: made in house; host or cells: High Five insect cells, baculovirus (11 viruses co-infected)
T2 sequence (P49736 whole entry): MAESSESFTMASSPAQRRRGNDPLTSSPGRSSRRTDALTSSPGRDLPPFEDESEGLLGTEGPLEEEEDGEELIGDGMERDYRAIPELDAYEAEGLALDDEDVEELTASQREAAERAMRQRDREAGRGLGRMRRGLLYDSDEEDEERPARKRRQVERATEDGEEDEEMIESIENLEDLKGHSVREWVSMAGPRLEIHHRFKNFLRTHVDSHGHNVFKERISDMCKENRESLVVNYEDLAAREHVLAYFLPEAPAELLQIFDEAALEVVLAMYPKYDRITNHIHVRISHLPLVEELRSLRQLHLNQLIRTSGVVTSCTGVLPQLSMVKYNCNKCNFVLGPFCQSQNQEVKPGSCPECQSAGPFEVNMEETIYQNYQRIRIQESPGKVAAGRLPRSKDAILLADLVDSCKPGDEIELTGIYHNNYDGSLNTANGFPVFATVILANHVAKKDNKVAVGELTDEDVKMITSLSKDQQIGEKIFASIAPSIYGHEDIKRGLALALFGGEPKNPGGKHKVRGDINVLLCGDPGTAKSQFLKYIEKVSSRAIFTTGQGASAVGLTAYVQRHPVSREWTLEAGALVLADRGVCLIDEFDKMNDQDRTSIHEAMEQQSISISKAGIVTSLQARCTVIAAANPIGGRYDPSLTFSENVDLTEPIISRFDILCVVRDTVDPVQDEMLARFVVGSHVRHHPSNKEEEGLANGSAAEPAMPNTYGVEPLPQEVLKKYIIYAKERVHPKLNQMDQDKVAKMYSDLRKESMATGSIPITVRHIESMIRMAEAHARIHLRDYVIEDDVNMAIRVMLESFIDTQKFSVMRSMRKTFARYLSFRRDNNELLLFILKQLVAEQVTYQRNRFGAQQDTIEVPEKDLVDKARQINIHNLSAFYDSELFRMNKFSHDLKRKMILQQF
T2 sequence (P25205 whole entry, further chain): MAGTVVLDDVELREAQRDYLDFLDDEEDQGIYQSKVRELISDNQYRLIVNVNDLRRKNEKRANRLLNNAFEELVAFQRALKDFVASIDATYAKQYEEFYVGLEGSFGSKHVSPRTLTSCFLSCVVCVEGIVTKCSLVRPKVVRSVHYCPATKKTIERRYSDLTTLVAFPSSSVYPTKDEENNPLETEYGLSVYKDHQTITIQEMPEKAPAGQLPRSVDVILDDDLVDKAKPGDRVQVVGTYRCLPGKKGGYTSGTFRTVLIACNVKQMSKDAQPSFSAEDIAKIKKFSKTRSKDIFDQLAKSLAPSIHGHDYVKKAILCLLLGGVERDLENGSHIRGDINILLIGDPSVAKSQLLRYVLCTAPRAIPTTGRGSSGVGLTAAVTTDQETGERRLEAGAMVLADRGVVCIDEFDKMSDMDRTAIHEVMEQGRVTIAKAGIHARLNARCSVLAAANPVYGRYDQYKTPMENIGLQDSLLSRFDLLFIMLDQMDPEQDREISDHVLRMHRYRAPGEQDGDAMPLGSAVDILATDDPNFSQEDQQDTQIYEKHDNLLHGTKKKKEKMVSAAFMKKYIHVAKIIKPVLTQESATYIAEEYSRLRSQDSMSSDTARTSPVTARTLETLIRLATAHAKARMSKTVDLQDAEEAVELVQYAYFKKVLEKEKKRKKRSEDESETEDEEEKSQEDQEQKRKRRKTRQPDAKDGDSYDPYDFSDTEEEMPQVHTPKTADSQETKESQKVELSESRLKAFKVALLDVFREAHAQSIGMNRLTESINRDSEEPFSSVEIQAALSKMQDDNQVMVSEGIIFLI
T2 sequence (P33991 whole entry, further chain): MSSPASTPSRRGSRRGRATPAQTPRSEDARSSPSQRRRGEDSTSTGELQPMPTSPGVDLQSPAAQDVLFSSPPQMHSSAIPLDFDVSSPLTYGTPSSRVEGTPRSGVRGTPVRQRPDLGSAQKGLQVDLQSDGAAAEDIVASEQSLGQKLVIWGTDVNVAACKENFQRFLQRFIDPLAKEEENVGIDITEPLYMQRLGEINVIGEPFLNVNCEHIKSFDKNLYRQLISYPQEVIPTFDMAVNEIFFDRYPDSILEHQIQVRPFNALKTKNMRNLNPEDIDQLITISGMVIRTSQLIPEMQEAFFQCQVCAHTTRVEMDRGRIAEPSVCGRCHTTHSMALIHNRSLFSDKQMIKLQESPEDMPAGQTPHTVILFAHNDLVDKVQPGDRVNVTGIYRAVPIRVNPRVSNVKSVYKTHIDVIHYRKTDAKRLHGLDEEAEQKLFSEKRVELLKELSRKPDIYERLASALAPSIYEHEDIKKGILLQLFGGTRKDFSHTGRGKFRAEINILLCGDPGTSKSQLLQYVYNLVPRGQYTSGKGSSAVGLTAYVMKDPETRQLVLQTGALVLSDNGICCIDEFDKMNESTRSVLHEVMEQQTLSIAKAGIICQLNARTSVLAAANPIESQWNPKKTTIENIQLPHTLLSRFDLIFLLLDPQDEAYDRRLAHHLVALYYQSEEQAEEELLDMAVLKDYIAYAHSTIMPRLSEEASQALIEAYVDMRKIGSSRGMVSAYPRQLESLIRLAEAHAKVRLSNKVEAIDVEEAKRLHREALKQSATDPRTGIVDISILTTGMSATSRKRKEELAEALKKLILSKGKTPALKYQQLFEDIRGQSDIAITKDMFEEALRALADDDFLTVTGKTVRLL
T2 sequence (P33992 whole entry, further chain): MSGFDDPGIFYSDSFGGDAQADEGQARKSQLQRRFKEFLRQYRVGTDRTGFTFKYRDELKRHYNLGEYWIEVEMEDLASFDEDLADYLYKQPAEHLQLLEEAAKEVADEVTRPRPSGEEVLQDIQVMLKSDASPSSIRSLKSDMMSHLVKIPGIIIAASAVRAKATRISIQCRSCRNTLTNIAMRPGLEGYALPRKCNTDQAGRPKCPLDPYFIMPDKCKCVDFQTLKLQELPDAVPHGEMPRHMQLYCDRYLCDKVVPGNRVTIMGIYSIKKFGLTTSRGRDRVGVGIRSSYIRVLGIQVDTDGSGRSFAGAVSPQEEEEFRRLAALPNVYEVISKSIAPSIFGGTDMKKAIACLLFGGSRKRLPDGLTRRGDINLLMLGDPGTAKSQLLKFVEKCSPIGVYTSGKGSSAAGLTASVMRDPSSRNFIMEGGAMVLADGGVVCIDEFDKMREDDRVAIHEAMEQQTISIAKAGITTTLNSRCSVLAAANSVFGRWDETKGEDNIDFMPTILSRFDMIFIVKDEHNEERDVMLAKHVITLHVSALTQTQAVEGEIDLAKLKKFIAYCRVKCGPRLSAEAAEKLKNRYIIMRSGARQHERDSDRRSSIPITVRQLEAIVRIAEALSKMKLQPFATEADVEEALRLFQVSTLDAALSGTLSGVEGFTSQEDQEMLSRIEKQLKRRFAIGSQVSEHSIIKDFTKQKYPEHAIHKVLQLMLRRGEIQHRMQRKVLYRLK
T2 sequence (Q14566 whole entry, further chain): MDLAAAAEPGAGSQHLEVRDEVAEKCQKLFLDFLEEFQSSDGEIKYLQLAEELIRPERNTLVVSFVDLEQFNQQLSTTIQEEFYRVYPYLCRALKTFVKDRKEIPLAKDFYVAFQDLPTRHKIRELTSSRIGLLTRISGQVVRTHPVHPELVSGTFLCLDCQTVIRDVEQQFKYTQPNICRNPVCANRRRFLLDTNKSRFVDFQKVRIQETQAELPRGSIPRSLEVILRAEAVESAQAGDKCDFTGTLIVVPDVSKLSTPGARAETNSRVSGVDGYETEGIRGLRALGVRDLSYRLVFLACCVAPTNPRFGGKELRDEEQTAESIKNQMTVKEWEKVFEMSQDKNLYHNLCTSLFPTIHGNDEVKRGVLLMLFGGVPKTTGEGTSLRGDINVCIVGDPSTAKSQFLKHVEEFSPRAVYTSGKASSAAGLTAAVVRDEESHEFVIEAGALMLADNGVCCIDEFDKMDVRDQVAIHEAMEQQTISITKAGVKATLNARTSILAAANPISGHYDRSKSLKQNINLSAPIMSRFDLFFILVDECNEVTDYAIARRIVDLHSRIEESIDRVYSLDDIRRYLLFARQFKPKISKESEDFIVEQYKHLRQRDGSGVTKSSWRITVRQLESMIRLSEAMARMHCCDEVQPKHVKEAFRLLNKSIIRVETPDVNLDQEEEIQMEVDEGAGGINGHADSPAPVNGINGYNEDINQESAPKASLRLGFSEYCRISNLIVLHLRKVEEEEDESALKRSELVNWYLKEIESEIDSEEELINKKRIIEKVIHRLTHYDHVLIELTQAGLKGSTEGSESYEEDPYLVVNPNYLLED
T2 sequence (P33993 whole entry, further chain): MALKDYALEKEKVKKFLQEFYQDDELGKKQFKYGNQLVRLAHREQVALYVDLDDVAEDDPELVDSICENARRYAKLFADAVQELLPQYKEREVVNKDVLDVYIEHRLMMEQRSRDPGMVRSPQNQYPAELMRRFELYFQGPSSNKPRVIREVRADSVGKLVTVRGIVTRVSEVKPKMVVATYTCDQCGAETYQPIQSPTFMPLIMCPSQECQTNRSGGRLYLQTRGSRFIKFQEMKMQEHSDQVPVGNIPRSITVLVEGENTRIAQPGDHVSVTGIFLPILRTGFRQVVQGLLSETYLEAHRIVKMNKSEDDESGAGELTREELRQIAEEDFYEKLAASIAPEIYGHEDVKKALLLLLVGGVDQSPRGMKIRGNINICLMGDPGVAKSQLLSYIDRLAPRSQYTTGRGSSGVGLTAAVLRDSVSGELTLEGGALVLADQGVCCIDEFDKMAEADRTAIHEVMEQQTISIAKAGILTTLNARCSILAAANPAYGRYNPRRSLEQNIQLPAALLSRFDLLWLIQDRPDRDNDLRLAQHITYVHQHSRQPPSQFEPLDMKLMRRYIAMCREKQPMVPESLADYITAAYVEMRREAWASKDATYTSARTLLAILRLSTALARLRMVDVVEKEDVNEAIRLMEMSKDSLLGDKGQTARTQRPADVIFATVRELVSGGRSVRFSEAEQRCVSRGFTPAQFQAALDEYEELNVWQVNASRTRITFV
The description is as above. The class given is biochemical. How it is done: as §1, §2, §3

Data set [3] concerns solid tumor cell lines (NCI-60 set). The conditions noted are these: cited from earlier work.
The subject of data set [4] is T2, human CMG helicase (hCMG). The experiment in a line: hCMG ATPase activity, FP ADP^2 Transcreener assay. It counts as biochemical. The note with it: primary FP ATPase assay. How it is done:
The fluorescent-polarization (FP) ADP-sensing assays were performed using the Transcreener® ADP^2 FP assay kit (cat #3010-1K, Bellbrook Labs). For hCMG inhibitor screening, assays were performed at 37° C. for 1 hr in 10 μl reactions in a 384-well plate (cat. #4514, Corning) using 2 μL of hCMG (~15 fmol), 25 mM Hepes-NaOH (pH 7.5), 10 mM NaCl, 0.5 mM ATP, 10 mM magnesium acetate, 1 mM DTT, 0.1 mg/ml BSA, and DNA fork substrates. […] Selected inhibitors or samples from a chemical library were added into the reactions when conducting the screening or testing inhibitor effectiveness. The NCI Diversity Set VI chemical library was obtained from the National Cancer Institute (Bethesda, MD).
The window of sensitivity for the ADP-sensing assays is determined by setting up two 10 μL control samples without any added hCMG helicase: a Low-FP mixture (4 nM ADP Alexa Fluor-633 Tracer alone) and a High-FP mixture (4 nM ADP Alexa Fluor-633 Tracer plus patented anti-ADP^2 Antibody). The amount of ADP^2 Antibody used had to be adjusted to account for the use of 500 μM ATP in our hCMG assays, versus 10 μM ATP in enzyme reactions typically assessed with standard kits prepared by BellBrook Labs. […] This was done according to the manufacturer by performing a titration with increasing ADP^2 Antibody, fixed 4 nM ADP Alexa Fluor-633 Tracer, and 500 μM ATP to determine the ~EC80-85 for millipol (mP) changes, which determined the optimal ADP^2 Antibody concentration to use as 0.64 mg/ml (FIG. 9A). Samples are read with a Perkin Elmer Envision II plate reader with optimized Cy5 (far-red) FP-compatible mirror and cubes (cat #2100-8390, Perkin Elmer). The Low-FP sample is the least polarized and gives a low mP reading, while the High-FP sample is the most polarized and gives the highest mP reading. The difference between the Low-FP and High-FP values defines the FP assay window, which is normally in a range of 150-200 mP under ideal conditions for screening purposes. The hCMG helicase hydrolyzes ATP to ADP and decreases the mP reading within this window, with an ideal change (ΔmP) in the FP window of at least 50% to be in a readable range for inhibitor screening (as per manufacturer). Potential hCMG chemical inhibitors reverse this effect and cause the mP readings to increase.
We performed a titration with increasing and decreasing concentrations of ADP and ATP, respectively, to assess the sensitivity of the FP assay in detecting ADP production (FIG. 9B). Consistent with the stated manufacturer predictions, the assay can reliably detect 1-3% changes in ADP production (i.e., 5-15 μM ADP production) in starting concentrations of ATP of 500 μM, with a Z′ efficiency between 0.6-0.8 (determined following manufacturer protocols).
Once the hCMG enzyme reactions are complete, 10 μL of 1× Stop Solution and Detection Buffer (buffer from BellBrook Labs; containing 4 nM ADP Alexa Fluor-633 Tracer plus ADP^2 Antibody) are added to each reaction, and to the High-FP control. The Low-FP control receives 10 μL of 1× Stop Solution and Detection Buffer containing only 4 nM ADP Alexa Fluor-633 Tracer (no Antibody). Samples are incubated at 25° C. for 1 hr, then read in the plate reader. […] Plate readings from these tests of potential positive hits should be similar to that seen with the Low-FP control, or such hits may instead be false-positives.

Data set [5] relates to Cdk1 and Cdk2 targets (Rb, Cdc6, PP1a). In words: Immunoblot of Cdk1/Cdk2-dependent targets, HaCaT cells. The class given is cell-based, human. The note with it: extended exposure (18 hrs). How it is done:
Immunoblots of total proteins from synchronized HaCaT cells treated with compounds at time of release (0 hr; beginning of G1 phase) and collected after 18 hrs of exposure. (FIG. 5A) DDK-dependent phosphorylation sites on Mcm2 were analyzed with phospho-specific antibodies. (FIG. 5B) Cdk1- and Cdk2-dependent targets (Rb, Cdc6, and PP1α) were analyzed with phospho-specific antibodies.
(In general: In western blotting, separated proteins are transferred to a membrane and probed.)

In data set [6] the test system is T2, human CMG helicase (hCMG). The note with it: role: substrate, cited from earlier work.

Regarding “human CMG helicase (hCMG) (Homo sapiens)”, the Km came out at 1550 µM in data set [1] (inhibitor CA1 2.5 μM present) and 690 µM in data set [1] (no inhibitor).
Consider `CO[C@@H]1[C@@H](OC(=O)c2ccc(C)[nH]2)[C@@H](O)[C@H](Oc2ccc3c(O)c(NC(=O)c4ccc(O)c(CC=C(C)C)c4)c(=O)oc3c2Cl)OC1(C)C` [clorobiocin], for which the “hCMG helicase inhibition in secondary strand-displacement assay” value in data set [2] (500 μM compound) is “effective hCMG helicase inhibitors”. The “growth suppression of solid tumor cell lines” value in data set [3] was “sensitive to similar low micromolar concentrations”. Moreover, the “inhibition of hCMG ATP hydrolysis” value in data set [4] was “effective nature of hCMG inhibition”.
For the compound `O=C(NC1CCNCC1)c1[nH]ncc1NC(=O)c1c(Cl)cccc1Cl` [AT7519], the “phosphorylation of Cdk2 targets Rb, Cdc6 (S54P) and Cdk1 target PP1a” value in data set [5] is reported as “blocks phosphorylation”.
Consider `Nc1ncnc2c1ncn2[C@@H]1O[C@H](COP(=O)(O)OP(=O)(O)OP(=O)(O)O)[C@@H](O)[C@H]1O` [ATP], for which the “Vmax of the hCMG” value in data set [2] (role: substrate, inhibitor CA1 2.5 μM present) is “without a change in the Vmax”. In addition, the Km in data set [2] (role: substrate, no inhibitor, read-out: Km for ATP, fork-unwinding activity) was 690 µM; in data set [6] (described by others, read-out: Km for hCMG ATP hydrolysis activity) it was 625 µM. The “ATP hydrolysis rate of the human helicase” value in data set [6] (500 μM ATP) is recorded as −80 mol-ADP per minute per mol-hCMG.
